The values below come from patent US4990663A, “Process for preparing halogenated aromatic amines” (E. I. Du POnt de Nemours and Company, priority 1989, dated 1991).

A short description of data set [1]: dechlorination in platinum-catalyzed hydrogenation, semi-continuous reactor. The settings on record: for Dechlor: ppm based on weight of product amine. As to the method: The autoclave was sealed, the air was displaced with nitrogen and the autoclave was pressure tested. The nitrogen was replaced with hydrogen and the contents of the autoclave were heated to 80° C. The agitation was started and the contents of the autoclave were heated to 100° C. The pressure control regulator on the hydrogen feed was set at 540 psig and this pressure maintained in the autoclave throughout the reduction. The addition of 510 g of 3,4-dichloro-1-nitrobenzene crude (containing 11% 2,3- and 1% 2,5- isomers) was started. During the simultaneous feeding of the hydrogen and the nitroaromatic, the temperature was allowed to rise to 135° C. where it was controlled by the automated cooling water system. The addition of the nitroaromatic was completed in about 120 minutes. […] Heating at reaction conditions was continued for an additional 15 minutes. The autoclave was cooled, the hydrogen was displaced with nitrogen and the organic phase was separated.

Data set [2] can be described thus: dehalogenation inhibitor evaluation in laboratory batch hydrogenation. As to the method:
The autoclave was sealed, the air was displaced with nitrogen and the autoclave was pressure tested. The nitrogen was replaced with hydrogen and the contents of the autoclave were heated to 75° C. The agitation was started and the pressure control regulator on the hydrogen feed was set to a maximum of 500 psig. […] The reduction was terminated. The autoclave was cooled, the hydrogen was displaced with nitrogen and the organic phase was separated.
Hydrogenation temperature was controlled at 110° C. instead of 96° C.

The conditions of data set [3]: per literature data; cited from earlier work.
The nature of data set [4]: storage stabilization of molten 3,4-dichloroaniline at 110° C. The settings on record: 0.43 wt. % additive. As to the method:
Round bottom drying ampuls of 20 ml capacity were dried by heating and were then cooled under nitrogen. Ten ml of test samples consisting of molten 3,4-dichloroaniline containing candidate stabilizers were pipetted into the ampuls which were sealed under nitrogen and stored in a 110° C. oven. Periodically an ampul of each sample was removed from the oven and evaluated.

[5] abbreviates: 2.1 mole % inhibitor based on nitroaromatic.
Setting [6] is: 2.0 mole % inhibitor based on nitroaromatic.

In the case of `NCCO` [ethanolamine], the “dechlorination (total of aniline and monochloroanilines in the product calculated as p-chloroaniline)” value in data set [1] (Example 1, 0.4 weight % and 1.2 mole % inhibitor based on nitroaromatic, 135° C., 540 psig) is “less than 235 ppm”. Besides, in data set [2] (Example 8, 0.5 weight % inhibitor, 96° C., 7.9 mg platinum, terminated at 188 minutes), the “dechlorination (total of aniline and monochloroanilines calculated as p-chloroaniline)” value is 0.03%. Also, the “dechlorinated derivatives in product amine” value in data set [2] (Example 9, 0.375 weight % inhibitor, 110° C., 15.8 mg platinum) is on record as 0.003%. Besides, the dehalogenation entry in data set [2] (batch, 96° C., concentrations near optimum for semicontinuous unit) was “very low”.

With `C1COCCN1` [morpholine, reference compound], the Dechlor in data set [1] (setting [5]) was determined as 548 ppm.

Turning to `OCCNCCO` [diethanolamine], the negative-log Kb (pKb) in data set [3] is recorded as 5.0. For the same compound, the Dechlor in data set [1] (setting [5]) was 344 ppm.

`NCCCO` [3-amino-1-propanol]: the pKb in data set [3] is listed as 4.1. Also, the Dechlor in data set [1] (setting [6]) was found to be 423 ppm.

`COCCCN` [3-methoxy-1-propylamine] registered a Dechlor in data set [1] (2.5 mole % inhibitor based on nitroaromatic) of 438 ppm.

In the case of `COCCN` [2-methoxyethylamine], in data set [4] (7 days), the Color entry was “Lt yellow” and the “High Boilers” value is 0.05 Weight %. In data set [4] (60 days), the Color entry is on record as “Yellow” and the “High Boilers” value stood at 0.07 Weight %. The negative logarithm of the Kb (pKb) in data set [3] was 4.6. The Dechlor in data set [1] (setting [6]) worked out at 282 ppm. Further, the “dechlorinated derivatives in product amine” value in data set [2] (Example 10, 1.0 weight % inhibitor, otherwise as Example 8) was determined as 0.05%. The dehalogenation inhibition result in data set [2] (batch, similar conditions (96° C.)) was “good dehalogenation inhibitor being approximately equivalent to morpholine”.

In data set [1] (1.5 mole % inhibitor based on nitroaromatic), `CC(O)CN` (stereo not shown) [1-amino-2-propanol] showed a Dechlor of 470 ppm.

The term pKb denotes the negative decadic logarithm of the Kb, by convention in mol/L.
